Data set [1] is described as follows: Volume of distribution at steady state in Wistar rat at 10 mg/kg, po and 5 mg/kg, iv by LC-MS analysis. The format is ADME, organism-based. Conditions: in vivo, read-out: Vdss.
A short description of data set [2]: Cmax in Wistar rat at 10 mg/kg, po and 5 mg/kg, iv. Conditions: in vivo. The format is ADME, organism-based.
Data set [3] can be described thus: Oral bioavailability in Wistar rat at 10 mg/kg. Type of data set: ADME, organism-based. Conditions: in vivo.
The nature of data set [4]: Ratio of drug level in brain to plasma in Wistar rat at 10 mg/kg, po and 5 mg/kg, iv. The format is ADME, organism-based. The following applies: read-out: BPR.
The nature of data set [5]: Apparent permeability of the compound in human Caco2 cells. Type of data set: ADME, cell-based. The following applies: Caco-2.
Data set [6] can be described thus: AUC (0 to t) in beagle dog at 1 mg/kg, iv administered as 5 mins infusion. Type of data set: ADME, organism-based, Canis lupus familiaris. Conditions: in vivo.
Data set [7] in a line: AUC (0 to t) in Wistar rat at 1 mg/kg, iv. The format is ADME, organism-based. The following applies: in vivo.
Data set [8] in a line: AUC (0 to t) in Wistar rat at 3 mg/kg, po. The format is ADME, organism-based. The following applies: in vivo.
The nature of data set [9]: AUC (0 to t) in beagle dog at 1 mg/kg, po. Type of data set: ADME, organism-based, Canis lupus familiaris. The following applies: in vivo.
A short description of data set [10]: Cmax in Wistar rat at 3 mg/kg, po. Type of data set: ADME, organism-based. Also noted: dose 3 mg/kg, route oral. Conditions: in vivo.
The nature of data set [11]: Cmax in beagle dog at 1 mg/kg, po. Conditions: in vivo. The format is ADME, organism-based, Canis lupus familiaris. Also noted: dose 1 mg/kg, route oral.
Data set [12] in a line: Apparent volume of distribution in Wistar rat at 1 mg/kg, iv. Type of data set: ADME, organism-based. Conditions: in vivo, read-out: Vd(app).
The nature of data set [13]: Apparent volume of distribution in beagle dog at 1 mg/kg, iv administered as 5 mins infusion. Type of data set: ADME, organism-based, Canis lupus familiaris. The following applies: in vivo, read-out: Vd(app).
Data set [14] in a line: Tmax in Wistar rat at 3 mg/kg, po. The following applies: in vivo. Type of data set: ADME, organism-based.
Data set [15] can be described thus: Tmax in beagle dog at 1 mg/kg, po. The format is ADME, organism-based, Canis lupus familiaris. The following applies: in vivo.
Data set [16] can be described thus: Oral bioavailability in Wistar rat at 3 mg/kg. Type of data set: ADME, organism-based. Conditions: in vivo.
Data set [17] is described as follows: Oral bioavailability in beagle dog at 1 mg/kg. The following applies: in vivo. Type of data set: ADME, organism-based, Canis lupus familiaris.

Take `CC(C)c1nc(C(=O)NC2CCN(CC3CC3)CC2)c2ccccn12`: the Vd in data set [1] was found to be 5.3 L/kg. Further, the peak level in data set [2] (Cmax) was 74 ng/mL. Also, in [3], the bioavailability worked out at 3.7%.

For `CC(C)c1nc(C(=O)NC2CCN(C(C)C)CC2)c2ccccn12`, the Vd in data set [1] was determined as 4.7 L/kg. Also, in data set [2], the Cmax amounted to 166 ng/mL. Further, the bioavailability in data set [3] worked out at 10%.

Regarding `CC(C)c1nc(C(=O)NC[C@@H]2[C@H]3CN(CC4CCOCC4)C[C@@H]23)c2ccccn12`, the Vd in data set [1] came to 10.4 L/kg. Moreover, the Kp in data set [4] was 0.6. The same molecule returned a Cmax in [2] of 120 ng/mL. Besides, the bioavailability in data set [3] was 17%.

Consider `COCCCN1C[C@@H]2[C@@H](CNC(=O)c3nc(C(C)C)n4ccccc34)[C@@H]2C1`, for which the apparent permeability (Papp) in [5] turned out to be 34.8 ×10⁻⁶ cm/s. In addition, the Vd in data set [1] turned out to be 3.7 L/kg; in [12], 3.7 L/kg; in [13] it was 2.1 L/kg. The Kp in data set [4] came to 0.31. The Cmax was 188 ng/mL in data set [2], 188 ng/mL in data set [10] and 412 ng/mL in data set [11]. Further, the bioavailability in data set [3] came out at 26%; in [16], 26%; in [17] it was 94%. Besides, in data set [6], the AUC(0-t) at 5 min turned out to be 1310 ng·h/mL. Moreover, the values for the AUC(0-t) in data set [7], in [8] and in data set [9] were 389 ng·h/mL, 301 ng·h/mL and 1220 ng·h/mL, respectively. Also, the time of peak concentration (Tmax) came out at 15 min in data set [14] and 30 min in data set [15].

Consider `COC(=O)N1CCC(CN2C[C@@H]3[C@@H](CNC(=O)c4nc(C(C)C)n5ccccc45)[C@@H]3C2)CC1`, for which, in [1], the Vd amounted to 3.3 L/kg. Moreover, in data set [4], the Kp was 0.69. This molecule also showed a Cmax in data set [2] of 150 ng/mL. Also, the bioavailability in data set [3] was determined as 12%.

As to `CC(C)c1nc(C(=O)NC2CCN(CC3(O)CCOCC3)CC2)c2ccccn12`, the Vd in data set [1] was determined as 4.7 L/kg. Besides, the Kp in data set [4] is 0.38. For the same molecule, the highest concentration (Cmax) in data set [2] was 434 ng/mL. In data set [3], this molecule showed a bioavailability of 63%.

Regarding `CC(C)c1nc(C(=O)NC[C@@H]2[C@H]3CN(C(C)C)C[C@@H]23)c2ccccn12`, the Vd in [1] was 7.6 L/kg. In [4], the Kp stood at 0.14. The same molecule yielded a peak concentration (Cmax) in data set [2] of 80 ng/mL. The molecule further displayed a bioavailability in [3] of 5%.

On to `CC(C)c1nc(C(=O)NC2CCN(CCF)CC2)c2ccccn12`, for which the Vd in data set [1] worked out at 2.9 L/kg. In addition, in [4], the Kp is 1.46. Further, the highest level in [2] (Cmax) was 99 ng/mL. This molecule had a bioavailability in [3] of 11%.

For `CC(C)c1nc(C(=O)NC2CCN(C3CCOCC3)CC2)c2ccccn12`, in data set [1], the Vd was determined as 4.6 L/kg. Further, the Kp in data set [4] worked out at 0.31. For the same molecule, the Cmax in data set [2] was determined as 1760 ng/mL. This molecule yielded a bioavailability in data set [3] of 98%.

As to `CC(C)c1nc(C(=O)NC[C@@H]2[C@H]3CN(CC(C)(C)O)C[C@@H]23)c2ccccn12`, in [1], the Vd was found to be 3.8 L/kg. Further, the Kp in data set [4] is 0.31. The molecule also returned a Cmax in [2] of 277 ng/mL. The bioavailability in data set [3] was 34%.

Turning to `CC(C)c1nc(C(=O)NC[C@@H]2[C@H]3CN(CC(C)(C)F)C[C@@H]23)c2ccccn12`, in data set [1], the Vd was 4.9 L/kg. The Kp in [4] is 0.38. In addition, the highest level in data set [2] (Cmax) was 8.1 ng/mL. For the same molecule, in data set [3], the bioavailability amounted to 1.5%.

As for `CC(C)c1nc(C(=O)NCC2CCN(CC3CCOCC3)CC2)c2ccccn12`, the Vd in data set [1] is 4 L/kg. Further, the Kp in [4] worked out at 0.31. Moreover, the highest concentration (Cmax) in data set [2] was found to be 232 ng/mL. The molecule also gave a bioavailability in [3] of 45%.

On to `COCCCN1CCC(NC(=O)c2nc(C(C)C)n3ccccc23)CC1`, for which the Vd in data set [1] came out at 4.9 L/kg. Besides, in data set [4], the Kp was determined as 0.31. The same molecule displayed a Cmax in data set [2] of 848 ng/mL. The bioavailability in data set [3] was determined as 44%.

As to `COCCCN1CCC(CNC(=O)c2nc(C(C)C)n3ccccc23)CC1`, in data set [1], the Vd came out at 5.2 L/kg. The Kp in [4] was found to be 0.22. Also, the concentration in data set [2] peaked (Cmax) at 109 ng/mL. The molecule also returned a bioavailability in data set [3] of 30%.

As a reminder, the Cmax is the peak of the concentration-time curve. Usually bioavailability stands for the share of a dose that reaches the circulation, judged against a reference dose that is usually intravenous. Read a low bioavailability as little systemic uptake. One may read the Papp as a coefficient for how fast a substance crosses the barrier. Broadly, the AUC(0-t) is the area under the concentration-time curve up to a stated or last time point. Read a low AUC(0-t) as less exposure. For orientation: Tmax means the time at which the peak concentration occurs.

Source of the values: ChEMBL document CHEMBL3739407, “Synthesis and SAR of Imidazo[1,5-a]pyridine derivatives as 5-HT4 receptor partial agonists for the treatment of cognitive disorders associated with Alzheimer's disease” (Eur J Med Chem, 2015).
